# From patent US7947741B2, “Use and administration of bacterial efflux pump inhibitors” (Mpex Pharmaceuticals, Inc., priority 2004, dated 2011)
# Assays:
# [1] = biological target: MexAB-OprM-mediated efflux of Leu-Nap, PAM1723 cells (Pseudomonas aeruginosa, UniProt P52002); assay: Leu-Nap accumulation assay; assay type: cell-based
# clinical = conditions: human, in vivo
# [2] = tested on: PAM1626 cells (lacking the efflux pump); assay: Leu-Nap accumulation assay; conditions: Leu-Nap 100 μg/ml, pentamidine 0 to 80 μg/ml
# Experimental: Leu-Nap, which is not fluorescent in solution, is cleaved enzymatically inside the cells to produce highly fluorescent β-naphthylamine. The more Leu-Nap enters cells, the more fluorescence is produced. The rate of production of β-naphthylamine (recorded as an increase in fluorescence) is limited by the rate of entry of Leu-Nap into the cell. To assess the uptake of Leu-Nap, cultures of P. aeruginosa were grown to OD600 ˜1, washed and re-suspended in buffer at pH 7.0 containing K2HPO4 50 mM, MgSO4 1 mM, and Glucose 0.4% (Buffer A). Assays were performed in 96-well flat bottom black plates (Applied Scientific or Costar) in a final volume of 200 μl and were initiated by addition of Leu-Nap to suspensions of intact cells to a final concentration of 100-20 μg/ml. Fluorescence was measured on a fMAX spectrofluorometer (Molecular Devices) using excitation of 320 nm and emission of 460 nm.
# [3] = tested on: P. aeruginosa PAM1753 (nfxC, overexpressing MexEF-OprN); assay: Levofloxacin potentiation checkerboard assay (broth microdilution); assay type: cell-based, Pseudomonas aeruginosa; conditions: for Levofloxacin MIC in the presence of inhibitor: PAM1753
# Experimental: (§1) Stock solutions were further diluted, according to the needs of a particular assay, in Mueller Hinton Broth (MHB). Stock solution was stored at −80° C.
# (§2) The checkerboard assay was performed in microtiter plates. […] The result of these manipulations is that each well of the microtiter plate contains a unique combination of concentrations of the two agents. The assay was performed in MHB with a final bacterial inoculum of 5×10^5 CFU/ml (from an early-log phase culture). Microtiter plates were incubated during 20 h at 35° C. and were read using a microtiterplate reader (Molecular Devices) at 650 nm as well as visual observation using a microtiter plate reading mirror.
# (§3) The test organisms used was PAM1020, which is a wild type strain of P. aeruginosa expressing the basal level of MexAB-OprM, as well as PAM1723, PAM1738, and PAM1753, overexpressing the MexAB-OprM, MexCD-OprJ, and MexEF-OprN pump, respectively.
# [4] = tested on: P. aeruginosa PAM1020 (wt, basal level of MexAB-OprM); assay: as above; assay type: cell-based, Pseudomonas aeruginosa
# Experimental: as §1, §2, §3
# [5] = tested on: P. aeruginosa PAM1548 (pump status none; gyrA (Thr83Ile)); assay: microbe, parasite or virus in culture; assay type: cell-based, Pseudomonas aeruginosa; conditions: PAM1548
# Source text: (§4) In addition to increased efflux, resistance to fluoroquinolones may be due to target mutations (gyrase and topoisimerase IV) or due to combination of these two resistance mechanisms in a single bacterial cell.
# [6] = tested on: P. aeruginosa PAM1569 (MexCD-OprJ; gyrA (Thr83Ile)); assay: microbe, parasite or virus in culture; assay type: cell-based, Pseudomonas aeruginosa; conditions: PAM1569
# Source text: as §4
# [7] = tested on: P. aeruginosa PAM1723 (nalB, overexpressing MexAB-OprM); assay: microbe, parasite or virus in culture; assay type: cell-based, Pseudomonas aeruginosa
# Experimental: as §1, §2, §3
# Efflux pump inhibitory activity of several commercially available diamidine analogs was evaluated using the checkerboard assay of Example 1 against the strain of P. aeruginosa overexpressing the MexAB-OprM efflux pump.
# [8] = tested on: P. aeruginosa PAM1626 (lacks all the three efflux pumps); assay: microbe, parasite or virus in culture; assay type: cell-based, Pseudomonas aeruginosa; conditions: for Levofloxacin MIC in the presence of inhibitor: PAM1626
# [9] = Pseudomonas aeruginosa, read-out: MIC* (MIC for the efflux pump inhibitor)
# MexAB-OprM-mediated efflux of Leu-Nap, PAM1723 cells, sequence (Q51487 18-485): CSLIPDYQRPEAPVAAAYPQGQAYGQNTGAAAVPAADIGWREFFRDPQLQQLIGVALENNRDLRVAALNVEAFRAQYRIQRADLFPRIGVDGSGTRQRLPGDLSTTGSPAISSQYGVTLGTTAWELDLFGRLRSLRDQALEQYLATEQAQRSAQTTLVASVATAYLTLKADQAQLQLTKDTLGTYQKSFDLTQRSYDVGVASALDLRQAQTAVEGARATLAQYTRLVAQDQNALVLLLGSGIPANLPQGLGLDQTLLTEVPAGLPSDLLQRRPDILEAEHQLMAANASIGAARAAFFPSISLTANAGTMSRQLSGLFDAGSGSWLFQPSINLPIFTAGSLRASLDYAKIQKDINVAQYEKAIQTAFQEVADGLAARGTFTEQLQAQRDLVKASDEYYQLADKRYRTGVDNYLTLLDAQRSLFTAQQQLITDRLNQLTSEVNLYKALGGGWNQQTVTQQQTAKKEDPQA
# MexAB-OprM-mediated efflux of Leu-Nap, PAM1723 cells, sequence (P52002 whole entry): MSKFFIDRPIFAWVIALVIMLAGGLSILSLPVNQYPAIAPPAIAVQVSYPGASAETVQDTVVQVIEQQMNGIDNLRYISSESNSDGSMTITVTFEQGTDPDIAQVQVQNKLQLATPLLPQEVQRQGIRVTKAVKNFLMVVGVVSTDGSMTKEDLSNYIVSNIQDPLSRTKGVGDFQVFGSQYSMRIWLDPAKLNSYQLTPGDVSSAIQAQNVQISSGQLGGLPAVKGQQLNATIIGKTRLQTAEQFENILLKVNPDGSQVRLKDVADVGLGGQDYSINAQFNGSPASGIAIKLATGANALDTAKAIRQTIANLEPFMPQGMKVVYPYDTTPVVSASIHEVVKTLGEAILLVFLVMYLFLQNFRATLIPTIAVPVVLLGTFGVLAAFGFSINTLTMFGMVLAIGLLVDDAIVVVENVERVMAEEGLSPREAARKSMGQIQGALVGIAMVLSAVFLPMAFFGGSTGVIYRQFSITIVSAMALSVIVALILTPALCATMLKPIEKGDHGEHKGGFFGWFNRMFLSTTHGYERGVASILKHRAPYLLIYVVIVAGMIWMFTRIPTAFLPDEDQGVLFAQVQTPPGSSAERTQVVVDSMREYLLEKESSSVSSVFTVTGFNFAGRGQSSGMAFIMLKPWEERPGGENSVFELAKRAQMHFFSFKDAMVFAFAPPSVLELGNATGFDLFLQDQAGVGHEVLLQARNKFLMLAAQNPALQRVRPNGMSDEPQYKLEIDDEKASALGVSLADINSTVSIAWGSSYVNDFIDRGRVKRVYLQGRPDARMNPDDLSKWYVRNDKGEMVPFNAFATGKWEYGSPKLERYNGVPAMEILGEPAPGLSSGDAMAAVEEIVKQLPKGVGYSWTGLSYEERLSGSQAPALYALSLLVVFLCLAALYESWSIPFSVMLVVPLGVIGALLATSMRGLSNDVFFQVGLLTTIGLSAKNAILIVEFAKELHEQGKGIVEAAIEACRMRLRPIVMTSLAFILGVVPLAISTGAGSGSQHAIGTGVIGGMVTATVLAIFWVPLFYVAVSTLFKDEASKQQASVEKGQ
# MexAB-OprM-mediated efflux of Leu-Nap, PAM1723 cells, sequence (P52477 24-383, further chain): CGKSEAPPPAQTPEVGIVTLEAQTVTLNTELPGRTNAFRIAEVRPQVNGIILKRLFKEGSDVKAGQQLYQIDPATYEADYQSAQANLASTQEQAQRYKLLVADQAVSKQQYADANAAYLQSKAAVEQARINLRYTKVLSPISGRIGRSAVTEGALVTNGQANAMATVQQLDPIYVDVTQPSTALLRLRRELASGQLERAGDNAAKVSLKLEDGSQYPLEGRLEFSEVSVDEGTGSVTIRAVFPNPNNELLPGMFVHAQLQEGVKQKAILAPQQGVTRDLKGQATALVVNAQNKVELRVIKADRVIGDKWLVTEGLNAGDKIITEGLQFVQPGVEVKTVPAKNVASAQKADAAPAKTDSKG
structure (smiles),measurement,setting,value
"N=C(N)c1ccc(OCCCCCOc2ccc(C(=N)N)cc2)cc1 [Pentamidine, pentamidine]",inhibitor concentration at which rate of Leu-Nap uptake in PAM1723 and PAM1626 is the same (complete inhibition of efflux),[1]; Leu-Nap 100 μg/ml,40 µg/mL
same,mode of inhibition,[1]; dependence on Leu-Nap substrate concentration,uncompetitive inhibition
same,pentamidine required for complete inhibition of the pump,"[1]; external Leu-Nap 60 μg/ml, fluorescence change in 30 min",80 µg/mL
same,pentamidine required to completely inhibit MexAB-OprM-mediated efflux,"[1]; external Leu-Nap 120 μg/ml, fluorescence change in 30 min",20 µg/mL
same,concentration at 7 day,clinical,≤ 110 ng/mL
same,half-life,"clinical; 70 mg/4 ml, T1/2 (a), CF sputum, Aerogen Clinical, high dose, a phase 0-8 hours, Mean",2.2 h
same,half-life,"clinical; 70 mg/4 ml, T1/2 (β), CF sputum, Aerogen Clinical, high dose, β phase, Mean",24.4 h
same,half-life,"clinical; 300 mg/6 ml, T1/2 (a), CF sputum, Respirgard II, high dose, a phase 0-8 hours, Mean",2.6 h
same,half-life,"clinical; 300 mg/6 ml, T1/2 (β), CF sputum, Respirgard II, high dose, β phase, Mean",26.7 h
same,AUC(0-t),clinical; AUC (0 to 168),84000 ng·h/mL
same,AUC(0-inf),clinical; AUC (0 to infinity),84000 ng·h/mL
same,AUC(0-t),clinical; AUC (0 to last non-BLQ),83000 ng·h/mL
same,Tmax,clinical; Tmax (0 to 168),1.8 h
same,half-life,clinical; α phase half-life for elimination from sputum,2.2 to 2.6 h
same,effect on Leu-Nap uptake,[2],No such increase
same,Levofloxacin MIC in the presence of inhibitor,[3]; inhibitor 1.25 μg/ml,2 µg/mL
same,Levofloxacin MIC in the presence of inhibitor,[3]; inhibitor 2.5 μg/ml,2 µg/mL
same,Levofloxacin MIC in the presence of inhibitor,[3]; inhibitor 5 μg/ml,2 µg/mL
same,Levofloxacin MIC in the presence of inhibitor,[3]; inhibitor 10 μg/ml,1 µg/mL
same,Levofloxacin MIC in the presence of inhibitor,[3]; inhibitor 20 μg/ml,0.25 µg/mL
same,MIC,[3]; [9],40 µg/mL
same,decrease of levofloxacin MIC,"[4]; PAM1020 (wild type), pentamidine at 20 μg/ml",8 fold
same,Levofloxacin MIC in the presence of inhibitor,"[4]; PAM1020, inhibitor 1.25 μg/ml",0.25 µg/mL
same,Levofloxacin MIC in the presence of inhibitor,"[4]; PAM1020, inhibitor 2.5 μg/ml",0.25 µg/mL
same,Levofloxacin MIC in the presence of inhibitor,"[4]; PAM1020, inhibitor 5 μg/ml",0.125 µg/mL
same,Levofloxacin MIC in the presence of inhibitor,"[4]; PAM1020, inhibitor 10 μg/ml",0.06 µg/mL
same,Levofloxacin MIC in the presence of inhibitor,"[4]; PAM1020, inhibitor 20 μg/ml",0.03 µg/mL
same,Levofloxacin MIC in the presence of inhibitor,"[4]; PAM1020, inhibitor 40 μg/ml",0.015 µg/mL
same,MIC,"[4]; Pseudomonas aeruginosa, PAM1020, inhibitor alone, read-out: MIC* (MIC for the efflux pump inhibitor)",80 µg/mL
same,Ciprofloxacin MIC w/pentamidine at 20 μg/ml,[5],0.5 µg/mL
same,Levofloxacin MIC w/pentamidine at 20 μg/ml,[5],0.25 µg/mL
same,Ciprofloxacin MIC w/pentamidine at 20 μg/ml,[6],4 µg/mL
same,Levofloxacin MIC w/pentamidine at 20 μg/ml,[6],4 µg/mL
same,Levofloxacin MIC in the presence of inhibitor,"[7]; PAM1723, inhibitor 1.25 μg/ml",2 µg/mL
same,Levofloxacin MIC in the presence of inhibitor,"[7]; PAM1723, inhibitor 2.5 μg/ml",1 µg/mL
same,Levofloxacin MIC in the presence of inhibitor,"[7]; PAM1723, inhibitor 5 μg/ml",1 µg/mL
same,Levofloxacin MIC in the presence of inhibitor,"[7]; PAM1723, inhibitor 10 μg/ml",0.5 µg/mL
same,Levofloxacin MIC in the presence of inhibitor,"[7]; PAM1723, inhibitor 10 μg/ml, listed as Pentamidine MP 601205",1 µg/mL
same,Levofloxacin MIC in the presence of inhibitor,"[7]; PAM1723, inhibitor 20 μg/ml",0.25 µg/mL
same,Levofloxacin MIC in the presence of inhibitor,"[7]; PAM1723, inhibitor 40 μg/ml",0.06 µg/mL
same,Levofloxacin MIC in the presence of inhibitor,"[7]; PAM1723, inhibitor 80 μg/ml",0.007 µg/mL
same,MIC* (MIC for the efflux pump inhibitor),"[7]; PAM1723, inhibitor alone, listed as Pentamidine MP 601205",>81 µg/mL
same,decrease of levofloxacin MIC,"[7]; PAM1723, pentamidine at 20 μg/ml",8 fold
same,MIC,"[7]; Pseudomonas aeruginosa, read-out: MIC* (MIC for the efflux pump inhibitor), PAM1723, inhibitor alone",> 80 µg/mL
same,reduction of the levofloxacin MIC of PAM1723 (2 μg/ml),[7]; inhibitor at 10 μg/ml to 20 μg/ml,at least 8 fold
same,Levofloxacin MIC in the presence of inhibitor,[8]; inhibitor 1.25 μg/ml,0.007 µg/mL
same,Levofloxacin MIC in the presence of inhibitor,[8]; inhibitor 2.5 μg/ml,0.007 µg/mL
same,Levofloxacin MIC in the presence of inhibitor,[8]; inhibitor 5 μg/ml,0.007 µg/mL
same,decrease in levofloxacin MIC,[8]; PAM1626 lacking efflux pumps,Almost no decrease
same,MIC,[8]; [9],10 µg/mL
